Our source for the EC50, IC50 and outcome values is PubChem BioAssay AID179 (DTP/NCI, 2004).

This experiment concerns CEM cells HIV-1 protection, formazan growth assay. Put plainly: NCI AIDS Antiviral Assay. As to conditions: for IC50: measured here: growth of uninfected CEM cells. The procedure, abridged: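 Protection of CEM cells against HIV-1 measured as cell growth via soluble formazan read-out, with five concentrations tested on both infected and uninfected cells; failure to protect may reflect toxicity.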

The source made the active and inactive calls.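 The calls were made as follows: active = compounds giving half or more protection of infected cells from virus-caused growth loss, again on retest; inactive = the rest.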 Where only a bound is given, the exact number is not on record here.

As for `Nc1ccn(CCNCCn2cnc3nc(N)[nH]c(=O)c32)c(=O)n1`, the EC50 was > 8.32 µM and the IC50 is > 8.32 µM. For the compound `O=C(/C=C/c1ccc(O)cc1)OCC1OC(Oc2cc(O)c3c(c2)OC(c2ccc(O)cc2)CC3=O)C(O)C(O)C1O` (centres undefined), the EC50 is > 51.3 µM and the IC50 was 27.5 µM.

On to `CCOC(=O)C(=O)c1c2cn(O)nc(OC)c-2nc1[N+](=O)[O-]`, for which the EC50 is > 813 µM and the IC50 turned out to be 537 µM.

As to `COc1cc2c(cc1OC)C(Cc1ccccc1NC(=O)c1ccc(C(=O)Nc3ccccc3CC3c4cc(OC)c(OC)cc4CCN3C)cc1)N(C)CC2` (centres undefined), the result was inactive.

On to `COc1ccc2c(c1)C(=O)C1CC(=O)CCC21` (centres undefined), for which the EC50 is > 288 µM and the IC50 was > 288 µM. For `Cc1n[nH]c(=S)n1NC=O`, the EC50 was > 200 µM and the IC50 is > 200 µM.

On to `Cc1ccc(N(C(=O)Nc2ccccc2)C2=NCC(C)S2)cc1C` (centres undefined), for which the EC50 was > 200 µM and the half-inhibitory concentration (IC50) was > 200 µM. Turning to `CC(/C(=N\Nc1ccccc1)c1ccc(O)cc1)C1C(=O)Oc2ccccc21` (centres undefined), the outcome was inactive. As to `COc1ccc(C(C2=C(O)CC(C)OC2=O)C2=C(O)CC(C)OC2=O)cc1` (centres undefined), the EC50 was > 661 µM and the IC50 worked out at 427 µM. `O=C(O)CSC(=S)CCCCCCCCCCC(=S)SCC(=O)O`: the EC50 was > 120 µM and the 50% inhibitory concentration (IC50) was > 120 µM. As for `CN1CCCCC(C(O)(c2ccccc2)c2ccccc2)C1=O` (centres undefined), the EC50 is > 115 µM and the IC50 came out at 0.363 µM. With `C/C(N)=N/OCc1nc(C)no1`, the EC50 is > 200 µM and the IC50 was > 200 µM.

Take `COc1cc(C(=O)N2CCc3c([nH]c4c([N+](=O)[O-])c(OC)ccc34)C2C)cc(OC)c1OC` (centres undefined): the outcome was inactive.

For `COC(=O)C(C)(N=Cc1ccccc1)c1ccccc1` (centres undefined), the EC50 was > 200 µM and the IC50 was > 200 µM.

Consider `COc1cc2c(cc1O)CC13CCC(=O)N1CCc1cc(OC)c(O)c-2c13` (centres undefined), for which the outcome was inactive. Regarding `COC1/C=C\C=C(/C)C(=O)Nc2cc3nc4ccc(Br)cc4oc-3c(c2=O)CC(C)CC(OC)C(O)C(C)/C=C(\C)C1OC(N)=O` (centres undefined), the EC50 was > 0.2 µM and the concentration for half-maximal inhibition (IC50) came to 0.0115 µM.

As for `CC12N=NN(c3ccc([N+](=O)[O-])cc3)C1(O)c1ccccc1C2=O` (centres undefined), the EC50 was > 200 µM and the IC50 is > 200 µM. Consider `CC1(C)CCCCCCC2CC2CCCCCC(C)(C)C1=O` (centres undefined), for which the EC50 was > 200 µM and the IC50 amounted to 105 µM. As for `CSC(SC)=C(C(=O)c1ccc(Cl)cc1)n1c(=O)sc2cc(Br)ccc21`, the EC50 is > 200 µM and the IC50 is 12.3 µM. For the compound `Clc1ccc(Nc2nnc(CNc3ccc(-c4nnc(Nc5ccc(Cl)cc5)o4)cc3)o2)cc1`, the EC50 was > 200 µM and the IC50 worked out at 1.23 µM. In the case of `CCOC(=O)c1ccc(-c2cc(C)[nH]n2)[nH]1`, the EC50 was > 200 µM and the IC50 amounted to 77.6 µM.

Regarding `O=C1c2ccccc2C(=O)N1CCn1ccc(NC(c2ccccc2)(c2ccccc2)c2ccccc2)nc1=O`, the EC50 was > 13.8 µM and the IC50 is > 13.8 µM. Consider `CC1(c2ccc3ccccc3c2)OC(=O)c2ccccc21` (centres undefined), for which the result was inactive.

On to `Cc1c(C)c2cc3c(=O)c(CCl)coc3c(C)c2oc1=O`, for which the EC50 is > 17 µM and the IC50 is > 17 µM. Consider `O=C(O)CC(Cc1ccc2c(c1)OCO2)C(=O)O` (centres undefined), for which the EC50 was > 200 µM and the IC50 is > 200 µM. For the compound `Ic1cc2c(cc1C1SCCCS1)OCO2`, the EC50 was > 251 µM and the IC50 was > 251 µM. In the case of `CC1CCC(O)C(C(O)CC2CC(=O)NC(=O)C2)C1` (centres undefined), the EC50 was > 200 µM and the IC50 is > 200 µM.

Take `COC(=O)C12C3C4C5(C(=O)OC)C(C1C35C(=O)N(C(C)C)C(C)C)C42C(=O)N(C(C)C)C(C)C` (centres undefined): the EC50 was > 55 µM and the IC50 is > 55 µM.

As to `Cc1ncc([N+](=O)[O-])n1CCOC(N)=O`, the EC50 is > 200 µM and the IC50 is > 200 µM. As to `O=C(CCl)Nc1ccc(SSc2ccc(NC(=O)CCl)cc2)cc1`, the EC50 is > 2 µM and the IC50 turned out to be 1.35 µM. In the case of `CC(=O)OCC1OC(OC2C(CSC3OC(COC(C)=O)C(OC(C)=O)C(OC(C)=O)C3OC(C)=O)OC(OC(C)=O)C(OC(C)=O)C2OC(C)=O)C(OC(C)=O)C(OC(C)=O)C1OC(C)=O` (centres undefined), the EC50 is > 36.3 µM and the IC50 is > 36.3 µM. As for `Cc1ccsc1/C=N/Nc1cc(C)c2cccc(C)c2n1`, the EC50 was > 200 µM and the half-inhibitory concentration (IC50) came to 138 µM.

Regarding `CC(C)C1=C(Cc2ccccc2)C(=O)O/C1=C\c1cc(Cl)c(O)c(Cl)c1`, the EC50 was > 200 µM and the IC50 was 32.4 µM. On to `Cc1cc(CO)c(O)c(CNCc2cc(C)cc(CO)c2O)c1`, for which the EC50 was > 200 µM and the IC50 worked out at 8.71 µM.

As to `COc1cc(N(C)C)c(OC)cc1/C=C1\Cc2ccccc2C1=O`, the EC50 was > 57.5 µM and the half-maximal inhibitory concentration (IC50) was 46.8 µM. As for `COCO[C@@H]1C[C@H]2C(=O)Nc3ccccc3C(=O)N2C1`, the EC50 was > 200 µM and the IC50 was 38 µM. Taken in the same sequence, the figures for `CCOC(=O)c1nc2ccccc2n(CC)c1=O` were > 200 µM and 79.4 µM.

Take `Clc1ccc(OC2CCO2)cc1Cl` (centres undefined): the EC50 is > 162 µM and the IC50 came to 145 µM. As to `Cc1ccccc1NC(=O)NC(Oc1ccccc1)(C(F)(F)F)C(F)(F)F`, the EC50 was > 200 µM and the IC50 is > 200 µM. In the case of `C[C@@H](NC(=O)Nc1cccc(C(=O)Nc2cc(C(C)(C)C)ccc2C(=O)O)n1)c1ccccc1`, the EC50 was > 200 µM and the IC50 is 17.4 µM. On to `CCOC(=O)C1=CCOc2cc(N(C)C)ccc21`, for which the EC50 is > 200 µM and the IC50 came out at 105 µM. For the compound `Clc1nc(NC2CCCCC2)nc(NC2CCCCC2)n1`, the outcome was inactive.

Consider `Oc1ccccc1/C=N\NC(=S)Nc1ccc2cn[nH]c2c1`, for which the EC50 was > 200 µM and the IC50 amounted to 126 µM. As to `CC1=C(C(=O)Nc2ccccc2)C(c2ccc(C)o2)C(C#N)=C(SCc2ccccc2)N1` (centres undefined), the EC50 was > 200 µM and the IC50 turned out to be 24 µM. In the case of `COc1cc(C2SC(N)=Nc3c2c(C)nn3C(=O)c2ccccc2O)ccc1O` (centres undefined), the EC50 was > 2 µM and the IC50 is 0.0977 µM.

For `CC(C)CC(NC=O)C(=O)NC(Cc1ccccc1)NC(=O)CNC(=O)C(C)NC(=O)OC(C)(C)C` (centres undefined), the EC50 was > 200 µM and the IC50 was > 200 µM. Turning to `CC(=O)OC[C@]12CCC3[C@@]4(C)CCCC(C)(C)C4CC[C@@]3(C)C1CC(C1=CC(=O)OC1O)O2` (some centres undefined), the EC50 is > 200 µM and the half-maximal inhibitory concentration (IC50) is 0.759 µM. For `N#CCC(=O)N/N=C1/C(=O)N(c2ccc(Cl)cc2)C(=O)C(=O)C1c1nc2ccccc2s1` (centres undefined), the outcome was inactive. Consider `CCOC(=O)/C(=C\c1cccc(C#N)c1)P(=O)(OCC)OCC`, for which the EC50 is > 537 µM and the IC50 worked out at 11 µM.

Regarding `CS(=O)(=O)OC[C@@H]1OCO[C@H]1COS(C)(=O)=O`, the EC50 was > 200 µM and the IC50 was > 200 µM. For the compound `O=c1c2ccc(Cl)cc2nc2nc(-c3ccccc3)c3cc(Cl)ccc3n12`, the EC50 was > 200 µM and the IC50 is > 100 µM. For `O=C1/C(=C/c2cccc3ccccc23)CCc2ccc([N+](=O)[O-])cc21`, the EC50 is > 200 µM and the IC50 was 47.9 µM. Consider `N.N.N.N.N.NC(=O)[O-].[Co+3].[I-]`, for which the result was inactive. `C=CN1CCCC1=O`: the outcome was inactive.

Regarding `N=C(N)CCNC(=O)C1CCC(N)=N1` (centres undefined), the EC50 was > 851 µM and the IC50 is 17 µM. On to `CCOC(=O)C(C)NC(=O)N(C)C12CC3CC(CC(C3)C1)C2` (centres undefined), for which the EC50 was > 200 µM and the IC50 is 151 µM. Taken in the same sequence, the figures for `Cc1ccc(N2C(=O)C3c4[nH]c5ccc(C)cc5c4C4CCC(C(C)(C)C)CC4C3C2=O)cc1` (centres undefined) were > 200 µM and 13.8 µM. Regarding `Nc1nc(Cl)cc(NCC2(O)CCCC2)n1`, the EC50 is > 200 µM and the IC50 is 166 µM. `Cc1ccc(C2CC(=O)CC(c3ccc(C)cc3)C23C(=O)NC(=O)NC3=O)cc1` (centres undefined): the EC50 is > 100 µM and the IC50 was 64.6 µM. Turning to `CC(N1CCS(=O)(=O)CC1)P(=O)(O)O` (centres undefined), the EC50 was > 200 µM and the IC50 was > 200 µM. `CC(C)C(NC(=O)OC(C)(C)C)C(=O)N1CC[C@@H](O)[C@H]1C(O)CC(=O)OC(C)(C)C` (some centres undefined): the EC50 is > 200 µM and the IC50 was > 200 µM. As for `O=C(Cc1ccccc1)NCCCN(CCCCN(CCCNC(=O)Cc1ccccc1)C(=O)OCc1ccccc1)C(=O)OCc1ccccc1`, the outcome was inactive.

For the compound `c1ccc([P+](CC[P+](c2ccccc2)(c2ccccc2)c2ccccc2)(c2ccccc2)c2ccccc2)cc1`, the EC50 is > 200 µM and the IC50 amounted to 6.17 µM. Taken in the same sequence, the figures for `CC(C)OP(=O)(OC(C)C)C(C)(C)O` were > 200 µM and > 200 µM. Taken in the same sequence, the figures for `O=C1C2CCCC1C1/C(=[N+](/[O-])O)C=C([N+](=O)[O-])C2C1[N+](=O)[O-]` (centres undefined) were > 234 µM and > 234 µM. Regarding `c1cnc2nc3c4ccccc4c4ccccc4c3nc2c1`, the EC50 is > 35.5 µM and the IC50 was > 35.5 µM. Turning to `COC(=O)C1=C(C(=O)OC)N(c2ccc(OC)cc2[N+](=O)[O-])C(c2ccc(C)cc2)=CC1c1ccc(OC)cc1OC` (centres undefined), the EC50 is > 100 µM and the IC50 is 3.02 µM.

Take `NC(=O)c1ccc([As](=O)(O)O)cc1N`: the EC50 is > 200 µM and the IC50 is > 200 µM. As to `Clc1ccc(SC(/C=C/NNC2=NC(c3ccccc3)C(c3ccccc3)=NN2)c2ccccc2)cc1` (centres undefined), the EC50 is > 7.24 µM and the IC50 is 5.62 µM.

Regarding `COc1ccc(NC(=O)C(=O)NO)c(OC)c1`, the EC50 is > 537 µM and the IC50 was 234 µM. `COC1(OC)CC(CO)(CNc2nc(N)nc(Cl)c2/C=N\O)C1`: the EC50 is > 200 µM and the IC50 stood at 2.69 µM. On to `O=S(=O)(O)C(Cc1nc2ccccc2[nH]1)S(=O)(=O)OCCC1S(=O)(=O)OCCOS1(=O)=O` (centres undefined), for which the EC50 was > 200 µM and the IC50 was 107 µM.
